In ChEMBL document CHEMBL1122374 (J Med Chem, 1983):

What was measured:
Adenosine deaminase [1] = molecular target: T1, Adenosine deaminase (Bos taurus, UniProt P56658); experiment: In vitro inhibition of adenosine deaminase in calf intestinal mucosa; assay type: tissue-based
T1 sequence (P56658 whole entry): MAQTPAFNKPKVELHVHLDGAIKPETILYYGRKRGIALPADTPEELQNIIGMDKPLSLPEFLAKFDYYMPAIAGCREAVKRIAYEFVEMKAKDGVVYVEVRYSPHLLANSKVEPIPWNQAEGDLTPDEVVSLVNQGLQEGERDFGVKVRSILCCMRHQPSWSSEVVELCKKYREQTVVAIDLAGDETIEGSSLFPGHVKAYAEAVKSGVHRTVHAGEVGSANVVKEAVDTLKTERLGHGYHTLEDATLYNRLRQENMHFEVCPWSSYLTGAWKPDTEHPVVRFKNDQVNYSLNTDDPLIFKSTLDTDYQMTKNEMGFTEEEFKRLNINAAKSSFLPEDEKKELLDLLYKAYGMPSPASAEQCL

Adenosine deaminase [2] = molecular target: T2, Adenosine deaminase (Homo sapiens, UniProt P00813); experiment: The compound was tested in vitro for inhibition of human erythrocytic adenosine deaminase
T2 sequence (P00813 whole entry): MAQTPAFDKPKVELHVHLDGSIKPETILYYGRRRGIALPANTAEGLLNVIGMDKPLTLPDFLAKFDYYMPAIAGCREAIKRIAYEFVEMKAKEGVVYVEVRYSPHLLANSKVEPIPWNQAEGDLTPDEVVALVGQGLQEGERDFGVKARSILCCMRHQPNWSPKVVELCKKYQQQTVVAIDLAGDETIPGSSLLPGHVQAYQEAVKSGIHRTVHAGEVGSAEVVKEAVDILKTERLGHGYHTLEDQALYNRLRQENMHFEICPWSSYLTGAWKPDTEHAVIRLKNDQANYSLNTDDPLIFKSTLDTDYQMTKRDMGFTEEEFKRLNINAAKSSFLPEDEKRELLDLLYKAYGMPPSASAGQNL

SMILES	Ki (Adenosine deaminase [1]) [nM]	Ki (Adenosine deaminase [2]) [nM]
OCCOCn1cnc2c1NC=NCC2O (stereo not drawn)	98	–
CC1=NC[C@@H](O)c2ncn([C@H]3C[C@H](O)[C@@H](CO)O3)c2N1	16	–
OC[C@H]1O[C@@H](n2cnc3c2N=CNC[C@H]3O)[C@H](O)[C@@H]1O [COFORMYCIN]	–	0.01
